Patent US9440913B2, “Dihydroxybenzene derivatives and antiprotozoal agent comprising same as active ingredient” (NAI INC., priority 2010, dated 2016)
Read-outs that look alike come from different tables or passages of the source.

What was measured:
[1] = molecular target: T1, recombinant Trypanosome AOX (TAO) enzyme (Trypanosoma brucei brucei, UniProt Q26710); experiment: TAO enzyme inhibition (quinol oxidase activity, ubiquinol-1 substrate); assay type: biochemical, T. brucei brucei; conditions: TAO-expressing E. coli membrane fraction, 25° C., ubiquinol-1, absorbance at 278 nm
T1 construct: made in house; host or cells: Escherichia coli (membrane fraction)
Procedure: Escherichia coli membrane fractions that express TAO by a plasmid harboring TAO cDNA cloned from T. brucei brucei (Fukai, Comparative Biochemistry & Physiology, 124, 141-148, 1999) were used as a recombinant Trypanosome AOX (TAO) enzyme. 50 mM Tris-HCl (pH 7.5), TAO-expressing membrane fraction (0.35 ng), and […] of an inhibitor were mixed in a 1 mL cuvette, and the mixture was incubated at 25° C. for 4 minutes. Ubiquinol-1 as a substrate was then added to the mixture to initiated the reaction, and change in absorbance at 278 nm was monitored (Shimadzu UV-3000, molar absorption coefficient ε=15 cm^−1 mM^−1).

T. b. rhodesiense IL1501 = experiment: Antiprotozoal effect, MIC measurement in HMI-9 culture; assay type: cell-based; conditions: for MIC: Trypanosoma brucei, RHODESIENSE, 24 h, bloodstream forms, 18 + 6 hours culture
Procedure: T. b. rhodesiense IL1501, the human infectious protozoan that causes acute symptoms, was used as a Trypanosomatid protozoan. The bloodstream forms of protozoan can be cultured in a HMI-9 culture medium (Hirumi, 1989). The protozoan was always cultured at a temperature of 37° C. in the presence of 5% CO2.
In a microtiter plate (96-well, FALCON 3072), HMI-9 culture medium and HMI-9 culture medium plus glycerol added to make a final concentration of 8.33 mM are separately prepared. 89 μL of the preparation are put into only the first well, and a 60 μL aliquot of each the other wells. 1 μL of a solution of AF or a AF derivative dissolved in DMSO was added to the first well, and was then suspended. A 30 μL aliquot of the suspension was then collected, was transferred to the second well, and was suspended. These operations were repeated in this order to prepare a three-fold dilution series of drug. A 40 μL aliquot of a protozoan culture was added to each well to make a final concentration of 5×10^4 cells/well (a final concentration of glycerol of 5 mM) followed by 18-hours culturing under conditions of 37° C. and 5% CO2. (For EC50 measurement, a 10 μL aliquot of Alamar Blue was added to each well), culturing was carried out under the same conditions for 6 more hours, surviving protozoans were visually observed with a microscope. The concentration at which no motile surviving protozoan was observed was defined as MIC.

[2] = molecular target: Cryptosporidium cyanide insensitive oxidase (AOX), recombinant protein (cCpAOX) (Cryptosporidium parvum, UniProt Q761U6); experiment: CpAOX enzyme inhibition; assay type: biochemical
Source text: Cryptosporidium has found to have cyanide insensitive oxidase (AOX), and its inhibitory activity was observed using its recombinant protein (cCpAOX) produced in E. coli.

[3] = Glycerol (+), final concentration of glycerol of 5 mM

T1 sequence (Q26710 whole entry): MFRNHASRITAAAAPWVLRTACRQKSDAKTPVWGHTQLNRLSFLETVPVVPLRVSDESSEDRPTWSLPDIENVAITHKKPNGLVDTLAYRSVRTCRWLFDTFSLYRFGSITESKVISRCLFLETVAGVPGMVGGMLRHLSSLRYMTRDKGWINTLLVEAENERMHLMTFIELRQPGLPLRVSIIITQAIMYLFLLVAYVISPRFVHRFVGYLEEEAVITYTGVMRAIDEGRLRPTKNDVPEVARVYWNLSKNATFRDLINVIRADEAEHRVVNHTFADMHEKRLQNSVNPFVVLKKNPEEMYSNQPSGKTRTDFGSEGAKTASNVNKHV
Sequence of Cryptosporidium cyanide insensitive oxidase (AOX), recombinant protein (cCpAOX) (Q761U6 entry or part of it): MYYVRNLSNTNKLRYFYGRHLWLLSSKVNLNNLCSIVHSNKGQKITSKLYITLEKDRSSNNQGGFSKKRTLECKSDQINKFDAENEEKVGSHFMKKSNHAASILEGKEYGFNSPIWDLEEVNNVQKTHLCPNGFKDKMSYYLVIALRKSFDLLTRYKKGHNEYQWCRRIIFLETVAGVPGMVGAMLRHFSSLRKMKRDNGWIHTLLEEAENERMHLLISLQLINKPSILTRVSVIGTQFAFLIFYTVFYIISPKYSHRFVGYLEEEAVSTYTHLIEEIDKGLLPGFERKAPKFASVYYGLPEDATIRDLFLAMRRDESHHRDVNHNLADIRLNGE

Structure (SMILES)	melting point [°C]	IC50 [1] [pM]	also measured
CCCCCC(C)=CCc1c(O)c(Cl)c(C)c(C(C)=O)c1O (mixture of isomers) [Compound 268-8, (E/Z)-3-Chloro-4,6-dihydroxy-2-methyl-5-(3-methyl-2-octenyl)acetophenone]	42 to 46	550	MIC (T. b. rhodesiense IL1501; [3]): 0.28 nM; MIC (T. b. rhodesiense IL1501; Glycerol (−)): 14.7 nM
COC(=O)c1c(C)cc(O)c(C/C=C(\C)CCC=C(C)C)c1O [Compound 146, Methyl (E)-3-(3,7-Dimethyl-2,6-octadienyl)-2,4-dihydroxy-6-methylbenzoate]	46 to 47		
COC(=O)c1ccc(O)c(C/C=C(\C)CCC=C(C)C)c1O [Compound 161, Methyl (E)-3-(3,7-Dimethyl-2,6-octadienyl)-2,4-dihydroxybenzoate]	62		
CC(=O)c1c(C)c(Cl)c(O)c(C/C=C(\C)CCC=C(C)C)c1O [Compound 173, (E)-3-Chloro-4,6-dihydroxy-5-(3,7-dimethyl-2,6-octadienyl)-2-methylacetophenone]	57 to 58	150	Antiprotozoal Effect (MIC) Glycerol (+) (T. b. rhodesiense IL1501; Glycerol (+), final concentration of glycerol of 5 mM, cell prints its own unit fM): 0.0008 nM; MIC (T. b. rhodesiense IL1501; Glycerol (−)): 1.4 nM
CC(=O)c1cc(Cl)c(O)c(CCCCCCCOC(=O)C(C)(C)C)c1O [Compound 178-11-OPiv, 7-(3-Acetyl-5-chloro-2,6-dihydroxyphenyl)heptyl pivalate]	48		
Cc1c(Cl)c(O)c(CCCCCCCOC(=O)C(C)(C)C)c(O)c1C#N [Compound 193-11-OPiv, 7-(3-Chloro-5-cyano-2,6-dihydroxy-4-methylphenyl)heptyl pivalate]	67 to 68	6000	
Cc1c(Cl)c(O)c(/C=C/CCCCCCOC(=O)C(C)(C)C)c(O)c1C=O [Compound 200-12-OPiv, (E)-8-(3-Chloro-5-formyl-2,6-dihydroxy-4-methylphenyl)-7-octenyl pivalate]	57 to 58	700	
CCC(=O)OCCCCCCC/C=C/c1c(O)c(Cl)c(C)c(C=O)c1O [Compound 200-13-OCOEt, (E)-9-(3-Chloro-5-formyl-2,6-dihydroxy-4-methylphenyl)-8-nonenyl propionate]	72 to 73	300	
C/C(=C\Cc1c(O)c(Cl)cc(C=O)c1O)CC/C=C(\C)C1CC(=O)C(C)(C)O1 (centres unmarked) [Compound 209, 5-Chloro-2,4-dihydroxy-3-[(2E,6E)-7-(5,5-dimethyl-4-oxotetrahydrohuran-2-yl)-3,7-dimethyl-2,6-heptadienyl]benzaldehyde]	70 to 72	200	
Cc1c(Cl)c(O)c(CCCCCCCC(=O)O)c(O)c1C=O [Compound 215-9-COOH, 8-(3-Chloro-5-formyl-2,6-dihydroxy-4-methylphenyl)octanoic acid]	149 to 150		
Cc1c(Cl)c(O)c(CCCCCCCCOC(=O)C(C)C)c(O)c1C=O [Compound 215-12-OCOiPr, 8-(3-Chloro-5-formyl-2,6-dihydroxy-4-methylphenyl)octyl isobutylate]		290	IC50 ([2]; recombinant protein produced in E. coli, read-out: CpAOX enzyme inhibition (IC50:nM)): 3.7 nM
Cc1c(Cl)c(O)c(CCCCCCCCCCCC(=O)O)c(O)c1C=O [Compound 215-13-COOH, 12-(3-Chloro-5-formyl-2,6-dihydroxy-4-methylphenyl)dodecanoic acid]	130 to 131	4200	
Cc1c(Cl)c(O)c(CCCCCCCCCOC(=O)C(C)(C)C)c(O)c1C=O [Compound 215-13-OPiv, 9-(3-Chloro-5-formyl-2,6-dihydroxy-4-methylphenyl)nonyl pivalate]	62	220	MIC (T. b. rhodesiense IL1501; [3]): 0.0081 nM; MIC (T. b. rhodesiense IL1501; Glycerol (−)): 280 nM
CC(C)=CCC/C(C)=C/Cc1c(O)cc(C)c(C=O)c1O [Compound 216, (E)-2,4-Dihydroxy-3-(3,7-dimethyl-2,6-octadienyl)-6-methylbenzaldehyde]	120 to 121		
CC(C)=CCC/C(C)=C/Cc1c(O)ccc(C=O)c1O [Compound 217, (E)-2,4-Dihydroxy-3-(3,7-dimethyl-2,6-octadienyl)benzaldehyde]	85		
CC(C)=CCC/C(C)=C/Cc1c(O)c(Cl)cc(C=O)c1O [Compound 224, (E)-5-Chloro-2,4-dihydroxy-3-(3,7-dimethyl-2,6-octadienyl)benzaldehyde]	94 to 95		
Cc1c(Cl)c(O)c(CCC(C)CCCC(C)COC(=O)C(C)(C)C)c(O)c1C=O (centres unmarked) [Compound 235-12-OPiv, 8-(3-Chloro-5-formyl-2,6-dihydroxy-4-methylphenyl)-2,6-dimethyloctyl pivalate]			IC50 [2]: 2.3 nM
C/C(=C\CC/C(C)=C/Cc1c(O)c(Cl)c(C)c(C=O)c1O)CO [Compound 236-9-OH, 3-Chloro-4,6-dihydroxy-5-[(2E,6E)-8-hydroxy-3,7-dimethyl-2,6-octadienyl]-2-methylbenzaldehyde]	99 to 99.7	300	
COCOC/C(C)=C/CC/C(C)=C/Cc1c(O)c(Cl)c(C)c(C=O)c1O [Compound 236-12-OMOM, 3-Chloro-5-[(2E,6E)-3,7-dimethyl-8-(methoxymethoxy)-2,6-octadienyl]-4,6-dihydroxy-2-methylbenzaldehyde]	49 to 50	120	
C/C(=C\Cc1c(O)c(Cl)c(C)c(C=O)c1O)CC/C=C(\C)COC1CCCO1 (centres unmarked) [Compound 236-12-OTHF, 3-Chloro-5-[(2E,6E)-3,7-dimethyl-8-(tetrahydrofuran-2-yloxy)-2,6-octadienyl]-4,6-dihydroxy-2-methylbenzaldehyde]	35 to 36	120	
Cc1c(Cl)c(O)c(CCCCCCCC2CC(=O)C(C)(C)O2)c(O)c1C=O (centres unmarked) [Compound 250, 5-Chloro-2,4-dihydroxy-6-methyl-3-[7-(3,3-dimethyl-4-oxo-2-oxacyclopentyl)heptyl]benzaldehyde]	70 to 71	500	MIC (T. b. rhodesiense IL1501; [3]): 0.78 nM; MIC (T. b. rhodesiense IL1501; Glycerol (−)): 12 nM
CCCCCC(C)CCc1c(O)c(Cl)c(C)c(C=O)c1O (centres unmarked) [Compound 265-8, 3-Chloro-4,6-dihydroxy-2-methyl-5-(3-methyloctyl)benzaldehyde]	65 to 67	180	MIC (T. b. rhodesiense IL1501; [3]): 0.011 nM; MIC (T. b. rhodesiense IL1501; Glycerol (−)): 0.46 nM
C/C(C=O)=C\CC/C(C)=C/Cc1c(O)c(Cl)c(C)c(C=O)c1O [Compound 274-9, 3-Chloro-5-[(2E,6E)-3,7-dimethyl-8-oxo-2,6-octadienyl]-4,6-dihydroxy-2-methylbenzaldehyde]	111.2 to 111.4	300	
C/C(=C\Cc1c(O)c(Cl)c(C)c(C=O)c1O)CC/C=C(\C)CCC1OC1(C)C (centres unmarked) [Compound 281-12, 3-Chloro-5-[(2E,6E)-3,7-dimethyl-9-(3,3-dimethyloxiran-2-yl)-2,6-nonadienyl]-4,6-dihydroxy-2-methylbenzaldehyde]	36 to 37	210	
CC(=O)c1c(C)c(Cl)c(O)c(C/C=C(\C)CC/C=C(\C)CCC=C(C)C)c1O [Compound 282-12, (E,E)-3-Chloro-4,6-dihydroxy 5-(3,7,11-trimethyl-2,6,10-dodecathenyl)-2-methylacetophenone]	92 to 93	150	MIC (T. b. rhodesiense IL1501; [3]): 11 nM; MIC (T. b. rhodesiense IL1501; Glycerol (−)): 19 nM
CC(C)=CCCC#CCc1c(O)c(Cl)c(C)c(C=O)c1O [Compound 285-8, 3-Chloro-4,6-dihydroxy-2-methyl-5-(7-methyl-6-octen-2-ynyl)benzaldehyde]	138	300	
Cc1c(Cl)c(O)c(CCCCCCCCCC(=O)OCC2COC(=O)O2)c(O)c1C=O (centres unmarked) [Compound 501-16-G, 1,3 Dioxolane-2-oxo-4-methyl 10-(3-chloro-5-formyl-2,6-dihydroxy-4-methylphenyl)decanoate]	70 to 72	320	MIC (T. b. rhodesiense IL1501; [3]): 1800 nM; MIC (T. b. rhodesiense IL1501; Glycerol (−)): 14000 nM
C/C(=C\Cc1c(O)c(Cl)c(C)c(C=O)c1O)CC/C=C(\C)C1OC(C)C(C)O1 (centres unmarked) [Compound 509-11, 3-Chloro-5-((2E,6E)-7-(4,5-dimethyl-1,3-dioxolane-2-yl)-3-methyl-2,6-octadienyl)-4,6-dihydroxy-2-methylbenzaldehyde]	35 to 36	300	
